Columns and labels:
C57BL/6 mice = settings: mouse, in vivo
Description: C57BL/6 mice were used to develop a consistent model of intra-abdominal adhesion formation. Mouse cecums were gently abraded to promote adhesion formation which were subsequently analyzed histologically and immunochemically to characterize the expression of pro-fibrotic genes including (αSMA and FNEDA isoform, both of which were examined immunohistochemically and by quantitative polymerase chain reaction (qPCR). Trichrome staining was used to assess collagen deposition, a major protein component found in the extracellular matrix (ECM) at adhesion sites. Consistent intra-abdominal adhesions in mice were achieved by gentle cecal abrasion with mortality rates of <10%. Adhesions were seen as early as post-operative day 1 with extensive adhesions being formed and vascularized by day 5. Expression of the FNEDA isoform first and subsequently αSMA and collagen occurred during adhesion maturation.
Equal numbers of male and female C57BL/6 mice (18-25 g, 8-10 weeks of age, Jackson Laboratories, Bar Harbor, Me.) were used in initial experiments while only male mice were used in the drug escalation studies because they sustained greater accumulations of fibrotic tissue (data not shown). […]

[1] = test system: rat peritoneal mesothelial cells; assay: TGF-β induced mesothelial-mesenchymal transition (MMT) of rat peritoneal mesothelial cells; assay type: cell-based
Protocol: Isolated mesothelial cells were incubated under control conditions without either TGF-β or trametinib, with TGF-β or trametinib alone, or with both TGF-β and trametinib for five days.
These increases in gene expression of phosphor-Erk1/2, FNEDA, αSMA and p-SMAD2 (linker) were blocked by as low a concentration of trametinib as 2 nM.
The experiments in this study were approved by the Institutional Animal Care and Use Committee at Thomas Jefferson University, and were performed in accordance with the National Institutes of Health guidelines for the care and handling of laboratory animals. […]
RPMCs were lysed in ice-cold modified RIPA buffer with protease inhibitor cocktail (50 mM/L Tris-HCl, 1% NP-40, 0.25% Na-deoxycholate, 150 mM/L NaCl, 1 mM/L EDTA, 1 mmol/L phenylmethyl sulfonyl fluoride, 1 mM/L sodium orthovanadate, 1 mM/L NaF, pH 7.4). Equivalent amounts of homogenate (50 μg/well), determined by Coomassie blue assay, were separated by sodium dodecyl sulfate polyacrylamide gel electrophoresis (SDS-PAGE), transferred to either nitrocellulose or PVDF membranes, and detected by SuperSignal West Femto or Pico chemiluminescence.

mouse lung fibroblasts = assay: Pro-fibrotic gene expression (qPCR) in bleomycin-treated mouse lung fibroblasts; assay type: cell-based; settings: bleomycin alone vs vehicle control
Description: Indeed, FIGS. 1A, 1B, and 1C depict the ability of trametinib to modulate the expression of pro-fibrotic genes in mouse lung fibroblasts. The three graphs represent expression of (type I collagen and FNEDA) and αSMA. Lung fibroblasts isolated form mouse lungs were placed in cell culture and treated either with saline (control) or bleomycin dissolved in saline and 3 different concentrations of trametinib (2.5, 5 and 10 nmolar) dissolved in DMSO. After treatment with the drug, RNA was extracted and quantified by qPCR. mRNAs for type I collagen (Collal), the FNEDA and αSMA are shown. Control values in FIGS. 1 A, B, and C were set to 100%.

Compound	Wound healing of abdominal muscles and skin at the laparotomy site (C57BL/6 mice)	Concentration blocking the increases of phosphor-Erk1/2, FNEDA, αSMA and p-SMAD2 (linker) ([1]; TGF-β-treated cells)	Effect of trametinib alone on mesothelial cells (toxicity, appearance) ([1]; trametinib alone, five days)	Increase in expression of Collal mRNA (mouse lung fibroblasts)	Increase in expression of FNEDA mRNA (mouse lung fibroblasts)	Increase in expression of αSMA mRNA (mouse lung fibroblasts)
CC(=O)Nc1cccc(-n2c(=O)n(C3CC3)c(=O)c3c(Nc4ccc(I)cc4F)n(C)c(=O)c(C)c32)c1 [trametinib]	no impairment	≤ 2 nM	no effect and no apparent toxic effects			
bleomycin				more than 200%	~150%	more than 200%

Reference: patent US20210260066A1, “METHOD OF USING MEK INHIBITOR TO PREVENT RADIATION INDUCED FIBROSIS” (THOMAS JEFFERSON UNIVERSITY, priority 2018, published 2021)
